Source: patent US10828298B2, “Pharmaceutical composition containing 2-{4-[N-(5,6-diphenylpyrazin-2-yl)-N-isopropylamino]butyloxy]-N-(methylsulfonyl)acetamide” (NIPPON SHINYAKU CO., LTD., priority 2015, dated 2020)

Assays:
[1] = Stability of Compound (I) itself to temperature and humidity (formulation study); type: physicochemical
[2] = target: prostaglandin I2 (PGI2) receptor (Homo sapiens, UniProt P43119); conditions: known, PTL 1; cited from earlier work
Sequence of prostaglandin I2 (PGI2) receptor (P43119 whole entry): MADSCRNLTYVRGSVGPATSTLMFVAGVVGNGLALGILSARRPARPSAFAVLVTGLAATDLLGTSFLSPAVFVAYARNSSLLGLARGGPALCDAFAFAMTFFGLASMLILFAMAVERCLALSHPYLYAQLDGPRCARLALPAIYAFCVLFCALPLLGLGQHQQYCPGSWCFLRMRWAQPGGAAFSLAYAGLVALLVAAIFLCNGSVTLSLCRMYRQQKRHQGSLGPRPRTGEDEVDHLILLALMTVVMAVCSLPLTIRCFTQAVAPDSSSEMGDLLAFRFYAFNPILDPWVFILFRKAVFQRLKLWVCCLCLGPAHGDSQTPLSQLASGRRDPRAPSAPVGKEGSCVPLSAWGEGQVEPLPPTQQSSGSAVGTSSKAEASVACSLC

Stability of Compound (I) itself, in words [1]: stable to temperature and humidity
SMILES: CC(C)N(CCCCOCC(=O)NS(C)(=O)=O)c1cnc(-c2ccccc2)c(-c2ccccc2)n1 [Compound (I), 2-{4-[N-(5,6-diphenylpyrazin-2-yl)-N-isopropylamino]butyloxy}-N-(methylsulfonyl)acetamide]
PGI2 receptor agonistic activity, in words [2]: excellent
